Measurements taken from patent US20220387602A1, “BIFUNCTIONAL DEGRADERS AND THEIR METHODS OF USE” (NOVARTIS AG, priority 2019, published 2022).
Each block holds one compound with its values, some of them ahead of it.

How the values were obtained:
BTK = molecular target: T1, BTK (Homo sapiens, UniProt Q06187); assay: BTK-GFP protein abundance flow cytometry assay in HEK293A; format: cell-based; conditions: 24 h; for BTK degradation Amax: % protein remaining at the concentration at which maximum degradation is seen, HEK293A; for DC50: concentration at which 50% maximal degradation was observed, HEK293A BTK-GFP sensor cells
T1 construct: the BTK open reading frame (ORF) was first shuttled from a pcDNA-DEST40-BTK vector; expressed in transfected cells; host or cells: HEK293A (Invitrogen R70507), lentiviral transduction, blasticidin selection
Method: Degradation of BTK, CSK, ABL2, EPHA4 and YES1 was measured in HEK293A cells (Invitrogen R70507) expressing either BTK-GFP and RFP, CSK-GFP and mCherry, GFP-ABL2 and mCherry, EPHA4-GFP and mCherry, or YES1-GFP and mCherry from a stably integrated bicistronic BTK-GFP-iresRFP, CSK-GFP-CHYSEL-mCherry, GFP-ABL2-CHYSEL-mCherry, EPHA4-GFP-CHYSEL-mCherry, or YES1-GFP-CHYSEL-mCherry construct, respectively. Reduction of the GFP signal measured by flow cytometry served as readout for BTK, CSK, ABL2, EPHA4 and YES1 degradation after degrader treatment.
The mix was incubated for another 20 min at RT and then added on 1 mL of a freshly prepared suspension of HEK293FT cells in a well of a 6-well plate (concentration 1.2×10^6 cells/mL). 1 day after transfection, the medium was replaced with 1.5 mL of complete growth medium (DMEM high Glucose+10% FCS+1% L-Glutamine+1% NEAA+1% NaPyr.). 48 h post transfection supernatant containing viral transducing particles was collected and frozen at −80° C.
Infection was performed with 90 μL of collected supernatant containing viral transducing particles in 1 mL medium including 8 µg/mL polybrene. 24 h post infection, stably transfected cells were selected with blasticidin at a concentration of 8 μg/mL referred to as stable HEK293A sensor cells.
Stable HEK293A sensor cells were maintained in complete growth medium (DMEM high Glucose+10% FCS+1% L-Glutamine+1% NEAA+1% NaPyr.) with passaging performed twice per week. On Day 0, stable HEK293A sensor cells were seeded at 10,000 cells/well in a 96-well microtiter plate in 260 μL complete medium. On Day 1, cells were treated in duplicate with 10-point 1:3 dilution series of compound using the HP D300 Digital Dispenser (Tecan). DMSO concentrations were normalized across the plate to 0.1%. On Day 2, after 24 h of incubation at 37° C., treatment media was discarded, cells rinsed with 100 μL/well PBS and then detached using 40 μL trypsin/well for 5 min. Trypsin was neutralized with 100 μL/well PBS+20% FCS). Flow cytometry was performed on the samples using the BD FACS CANTO II (Becton Dickinson). Cell identification was then performed using forward (FSC) vs. side scatter (SSC) plots. Single cell discrimination is performed using SSC-Width (SSC-W) vs. SSC-Height (SSC-H) plots. Median GFP values for 5,000 single cells are used to determine BTK levels. Median GFP values from HEK293 Å-iresRFP are used as a background signal and thus defining 0% BTK signal. Median GFP values from DMSO treated HEK293 Å-BTK-GFP-iresRFP are used to define 100% BTK signal for subsequent DC50 curves (concentration at 50% BTK degradation). GFP and RFP are read in the channels called FITC and PE, respectively.
Concentration response curves plotting relative reduction of the GFP signal (measured by flow cytometry) versus 10 compound concentrations (starting concentration 10 μM, 3 fold dilution steps) of the compounds allowed generation of DC50 values. Protein abundance measured for the second generation vectors having a chysel was done in close analogy to the above described method for measuring BTK abundance.
Table 5 columns are defined as follows: DC50 refers to the concentration at which 50% maximal degradation was observed; deg Amax is the extent of degradation and the value refers to the % protein remaining at the concentration at which maximum degradation is seen.

CRBN [1] = molecular target: T2, CRBN (Homo sapiens, UniProt Q96SW2); assay: CRBN displacement assay Format 1 (fluorescence polarization, BodipyFL-lenalidomide probe Compound HH); format: binding
Method: (§1) Compounds were tested in the following biochemical and cellular assays.
(§2) BodipyFL conjugated lenalidomide compound HH was used as a fluorescent probe. […] Protein and substrate were diluted in assay buffer.
All protein and probe containing solutions were handled in ‘Maxymum Recovery’ tubes (Axygen Scientific Inc., Union City, USA). […] For the plate measurements a PHERAstar reader (BMG Labtech, Offenburg, Germany) was used. The instrument was equipped with a specific optics module containing filters and dichoic mirrors for measuring the fluorescence polarization-type assay. With this module, the fluorescence of the Bodipy FL-based probe was excited at 485 nm and the emissions of the product were measured at 520 nm. The fluorescence in each well was excited by 10 flashes per measurement.
For the determination of AC50 values, the assays were performed at room temperature in 384-well plates with a total assay volume of 10.1 μL per well. The test compound was dissolved in 90% (v/v) DMSO/water. For the assays, 100 nL of the 90% (v/v) DMSO/water solution or compound solution were added per well, followed by the addition of 5 μL protein solution (protein in 1× assay buffer).
(§3) The final assay concentration of the protein was nominally 100 nM. After 45 minutes of pre-incubation at room temperature, the competition for binding was started by the addition of 5 μL probe solution (probe dissolved in assay buffer). The final concentration of the probes in the assays was 5 nM. After the addition of the probe solution, the final DMSO concentration in the assay was 0.9% (v/v). The effect of the probe on the pre-established compound-protein complex equilibrium was determined after 45 minutes (t=45 min). The AC50 value was calculated from the plot of percentage of protein saturation versus the test compound concentration by a logistics fit according to: y=A^2+(A^1−A^2)/(1+(x/AC50)^p), where y is the %-saturation value at the test compound concentration, x. A^1 is the lowest saturation value, i.e., 0%, and A^2 the maximum saturation value, i.e. 100%. The exponent, p, is the Hill coefficient.

CRBN [2] = molecular target: T2, CRBN; assay: CRBN displacement assay Format 2a (fluorescence polarization, 1536-well, Envision reader); format: binding; conditions: for CRBN Amax* (% at 50 μM) Format 2a: greatest effect as % displacement of the reference probe at the highest concentration tested (50 μM), given where AC50 >50 μM, 45 min
Method: as §1, §2
The fluorescence of the Bodipy FL-based probe was excited at 480 nm and the emissions of the product were measured at 535 nm. The fluorescence in each well was excited by 30 flashes per measurement.
For the determination of AC50 values, assays were performed at room temperature in 1536-well plates with a total assay volume of 6.03 μL per well. The test compounds were dissolved and diluted in 100% DMSO. For the assays, 30 nL of DMSO or compound solution were added per well, followed by the addition of 3 μL protein solution (80 nM protein in 1× assay buffer).
as §3, with “nominally 40” for “nominally 100”, “of 3” for “of 5”, “solution (10 nM probe” for “solution (probe”, “the probe” for “the probes”, “was 0.5%” for “was 0.9%”

[3] = concentration at which 50% of reference probe Compound HH is displaced, 100 nM protein, 5 nM probe, Table 4, read-out: CRBN AC50 [μM] Format 1
[4] = concentration at which 50% of reference probe Compound HH is displaced, 40 nM protein, 5 nM probe, read-out: CRBN AC50 [μM] Format 2a

T1 sequence (Q06187 whole entry): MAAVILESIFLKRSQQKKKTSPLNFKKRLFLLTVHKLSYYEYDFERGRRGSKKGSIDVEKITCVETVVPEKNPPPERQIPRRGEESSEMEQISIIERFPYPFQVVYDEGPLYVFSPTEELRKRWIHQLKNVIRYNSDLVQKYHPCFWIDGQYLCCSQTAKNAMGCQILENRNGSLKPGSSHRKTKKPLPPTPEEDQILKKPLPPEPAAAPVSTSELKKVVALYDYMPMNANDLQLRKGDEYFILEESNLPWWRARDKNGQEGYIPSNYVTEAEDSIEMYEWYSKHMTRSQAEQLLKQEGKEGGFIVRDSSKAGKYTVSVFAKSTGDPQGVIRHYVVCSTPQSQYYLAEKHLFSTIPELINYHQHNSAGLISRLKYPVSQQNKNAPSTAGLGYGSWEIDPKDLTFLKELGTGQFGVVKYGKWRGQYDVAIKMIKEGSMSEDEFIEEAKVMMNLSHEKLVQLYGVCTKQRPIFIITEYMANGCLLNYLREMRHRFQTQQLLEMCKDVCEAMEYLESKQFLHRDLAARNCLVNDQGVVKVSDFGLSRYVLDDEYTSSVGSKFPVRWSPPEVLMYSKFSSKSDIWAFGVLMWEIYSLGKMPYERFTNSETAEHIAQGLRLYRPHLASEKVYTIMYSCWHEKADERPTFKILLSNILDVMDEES
T2 sequence (Q96SW2 whole entry): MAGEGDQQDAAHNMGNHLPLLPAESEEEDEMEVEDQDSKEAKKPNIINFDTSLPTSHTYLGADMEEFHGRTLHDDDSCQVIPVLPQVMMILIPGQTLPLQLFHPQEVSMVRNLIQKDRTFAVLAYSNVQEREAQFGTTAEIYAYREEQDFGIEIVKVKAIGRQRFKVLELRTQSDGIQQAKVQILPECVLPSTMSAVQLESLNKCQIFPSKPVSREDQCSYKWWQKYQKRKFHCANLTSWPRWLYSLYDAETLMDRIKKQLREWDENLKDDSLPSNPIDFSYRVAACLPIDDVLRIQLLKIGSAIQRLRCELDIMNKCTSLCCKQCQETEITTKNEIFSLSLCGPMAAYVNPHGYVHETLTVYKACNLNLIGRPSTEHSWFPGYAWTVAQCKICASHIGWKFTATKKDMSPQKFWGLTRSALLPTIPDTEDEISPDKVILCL

Structure (SMILES): Cc1c(NC(=O)c2ccc(C(C)(C)O)cc2F)cc(F)cc1-c1ncnc2[nH]c(-c3ccc(CN4CCN(CCN5CCC(Oc6ccc(N7CCC(=O)NC7=O)cc6)CC5)CC4)cc3)cc12 [Compound 28, N-(3-(6-(4-((4-(2-(4-(4-(2,4-dioxotetrahydropyrimidin-1(2H)-yl)phenoxy)piperidin-1-yl)ethyl)piperazin-1-yl)methyl)phenyl)-7H-pyrrolo[2,3-d]pyrimidin-4-yl)-5-fluoro-2-methylphenyl)-2-fluoro-4-(2-hydroxypropan-2-yl)benzamide]
BTK degradation Amax (BTK): 40% | DC50 (BTK): 0.0092 µM

Structure (SMILES): Cc1cc(OCCN2CCC(OC3CCN(Cc4ccc(-c5cc6c(-c7cc(F)cc(NC(=O)c8ccc(C(C)(C)O)cc8F)c7C)ncnc6[nH]5)cc4)CC3)CC2)ccc1N1CCC(=O)NC1=O [Compound 30, N-(3-(6-(4-((4-((1-(2-(4-(2,4-dioxotetrahydropyrimidin-1(2H)-yl)-3-methylphenoxy)ethyl)piperidin-4-yl)oxy)piperidin-1-yl)methyl)phenyl)-7H-pyrrolo[2,3-d]pyrimidin-4-yl)-5-fluoro-2-methylphenyl)-2-fluoro-4-(2-hydroxypropan-2-yl)benzamide]
BTK degradation Amax (BTK): 12.2% | DC50 (BTK): 0.0098 µM

Structure (SMILES): Cc1c(NC(=O)c2ccc(C(C)(C)O)cc2F)cc(F)cc1-c1ncnc2[nH]c(-c3ccc(CN4CCC5(CCN(CCOc6ccc(N7CCC(=O)NC7=O)c(Cl)c6)CC5)CC4)cc3)cc12 [Compound 31, N-(3-(6-(4-((9-(2-(3-chloro-4-(2,4-dioxotetrahydropyrimidin-1(2H)-yl)phenoxy)ethyl)-3,9-diazaspiro[5.5]undecan-3-yl)methyl)phenyl)-7H-pyrrolo[2,3-d]pyrimidin-4-yl)-5-fluoro-2-methylphenyl)-2-fluoro-4-(2-hydroxypropan-2-yl)benzamide]
BTK degradation Amax (BTK): 32.8% | DC50 (BTK): 0.0557 µM

Structure (SMILES): Cc1c(NC(=O)N2C[C@H](CC(C)C)[C@@H](O)C2)cc(F)cc1-c1ncnc2[nH]c(-c3ccc(CN4CCN(CCOc5ccc(N6CCC(=O)NC6=O)cc5)CC4)cc3)cc12 [Compound 32, (3R,4S)—N-(3-(6-(4-((4-(2-(4-(2,4-Dioxotetrahydropyrimidin-1(2H)-yl)phenoxy)ethyl)piperazin-1-yl)methyl)phenyl)-7H-pyrrolo[2,3-d]pyrimidin-4-yl)-5-fluoro-2-methylphenyl)-3-hydroxy-4-isobutylpyrrolidine-1-carboxamide]
BTK degradation Amax (BTK): 16.7% | DC50 (BTK): 0.0014 µM

Structure (SMILES): C=CCn1cccc(CN2CCC(=O)NC2=O)c1=O [ILB-1, 1-((1-allyl-2-oxo-1,2-dihydropyridin-3-yl)methyl)dihydropyrimidine-2,4(1H,3H)-dione]
AC50 (CRBN [1]): 11 µM | AC50 (CRBN [2]): 4.79 µM

Structure (SMILES): O=C1CCN(Cc2cccn(CCO)c2=O)C(=O)N1 [ILB-3, 1-((1-(2-Hydroxyethyl)-2-oxo-1,2-dihydropyridin-3-yl)methyl)dihydropyrimidine-2,4(1H,3H)-dione]
AC50 (CRBN [1]): 14.1 µM | AC50 (CRBN [2]): 4.17 µM

Structure (SMILES): O=C1CCN(Cc2cccn(CCN3CCC(OC4CCNCC4)CC3)c2=O)C(=O)N1 [ILB-6, 1-((2-oxo-1-(2-(4-(piperidin-4-yloxy)piperidin-1-yl)ethyl)-1,2-dihydropyridin-3-yl)methyl)dihydropyrimidine-2,4(1H,3H)-dione]
AC50 (CRBN [1]): 19.8 µM | AC50 (CRBN [2]): 8.36 µM

Structure (SMILES): O=C1CCN(Cc2cccc(CCO)c2)C(=O)N1 [ILB-7, 1-(3-(2-Hydroxyethyl)benzyl)dihydropyrimidine-2,4(1H,3H)-dione]
AC50 (CRBN [1]): 61.2 µM | AC50 (CRBN [2]): > 50 µM | CRBN Amax* (% at 50 μM) Format 2a (CRBN [2]): 40%

Second part, the compound after the results:

AC50 (CRBN [1]): > 100 µM | AC50 (CRBN [2]): > 50 µM | CRBN Amax* (% at 50 μM) Format 2a (CRBN [2]): 21%
Structure (SMILES): O=C1CCN(Cc2cc(C(=O)O)ccn2)C(=O)N1 [ILB-8, 2-((2,4-Dioxotetrahydropyrimidin-1(2H)-yl)methyl)isonicotinic acid]

AC50 (CRBN [1]; [3]): 13 µM | AC50 (CRBN [2]; [4]): 5.79 µM
Structure (SMILES): O=C(O)COc1ccc(N2CCC(=O)NC2=O)cc1 [ILB-14, 2-(4-(2,4-Dioxotetrahydropyrimidin-1(2H)-yl)phenoxy)acetic acid]

AC50 (CRBN [1]; [3]): 7.37 µM | AC50 (CRBN [2]; [4]): 2.61 µM
Structure (SMILES): Cc1cc(OCC(=O)O)ccc1N1CCC(=O)NC1=O [ILB-15]

AC50 (CRBN [1]; [3]): 0.95 µM
Structure (SMILES): Cc1cc(F)c(C(=O)O)cc1N1CCC(=O)NC1=O [ILB-29, 5-(2,4-dioxotetrahydropyrimidin-1(2H)-yl)-2-fluoro-4-methylbenzoic acid]

AC50 (CRBN [1]): 13.5 µM
Structure (SMILES): O=C1CCN(c2c(F)cc(C#CCN3CCNCC3)cc2F)C(=O)N1 [ILB-45, 1-(2,6-difluoro-4-(3-(piperazin-1-yl)prop-1-yn-1-yl)phenyl)dihydropyrimidine-2,4(1H,3H)-dione]

AC50 (CRBN [1]): 2.8 µM
Structure (SMILES): O=C1CCN(c2cc(C(=O)N3CCC(OC4CCNCC4)CC3)ccc2Cl)C(=O)N1 [ILB-60, 1-(2-Chloro-5-(4-(piperidin-4-yloxy)piperidine-1-carbonyl)phenyl)dihydropyrimidine-2,4(1H,3H)-dione]
